Assay results published in PubChem BioAssay AID248 (DTP/NCI, 2004).
“And” between values parts separate entries of the source, which are not always exact repeats. Equal entries are not always repeated. Toxic doses and inconclusive results are not listed. Rule as the data show it: active = T/C of 150% or more; inactive = T/C below 125%.

Tested on: L1210 leukemia ip in BDF1 mice, survival T/C
Assay: NCI In Vivo Anticancer Drug Screen. Data for tumor model L1210 Leukemia (intraperitoneal) in B6D2F1 (BDF1) mice
Settings: endpoint: mean survival time, higher = longer survival
Procedure, shortened: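 Antitumor effect is assessed in tumor-bearing animals. Survival in the compound arm is compared with a vehicle-dosed control arm and expressed as their quotient.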

[1] = dose: 100.0 mg/kg/injection, schedule: Q01DX001 (ip), vehicle: carboxymethylcellulose (CMC)
[2] = dose: 200.0 mg/kg/injection, schedule: Q01DX001 (ip), vehicle: carboxymethylcellulose (CMC)
[3] = dose: 400.0 mg/kg/injection, schedule: Q01DX001 (ip), vehicle: carboxymethylcellulose (CMC)
[4] = dose: 100.0 mg/kg/injection, schedule: Q01DX009 (ip), vehicle: Klucel (hydroxypropylcellulose) (HPC)
[5] = dose: 200.0 mg/kg/injection, schedule: Q01DX009 (ip), vehicle: Klucel (hydroxypropylcellulose) (HPC)
[6] = dose: 100.0 mg/kg/injection, schedule: Q04DX003 (ip), vehicle: Klucel (hydroxypropylcellulose) (HPC)
[7] = dose: 200.0 mg/kg/injection, schedule: Q04DX003 (ip), vehicle: Klucel (hydroxypropylcellulose) (HPC)
[8] = dose: 400.0 mg/kg/injection, schedule: Q04DX003 (ip), vehicle: Klucel (hydroxypropylcellulose) (HPC)
[9] = dose: 50.0 mg/kg/injection, schedule: Q01DX009 (ip), vehicle: saline with Tween-80
[10] = dose: 100.0 mg/kg/injection, schedule: Q01DX009 (ip), vehicle: saline with Tween-80
[11] = dose: 200.0 mg/kg/injection, schedule: Q01DX009 (ip), vehicle: saline with Tween-80
[12] = dose: 50.0 mg/kg/injection, schedule: Q01DX001 (ip), vehicle: carboxymethylcellulose (CMC)

Measured: T/C

CCc1ccc(N=Nc2c(F)c(F)c(N)c(F)c2F)cc1
inactive: [1] 100 % of control | [2] 95 % of control | [3] 102 % of control

CN(C)c1ccc(/C=N/NC(=O)C2CCCO2)c(Cl)c1 (stereo unspecified)
inactive: [4] 102 % of control | [5] 98 % of control

O=C(O)C1CC/C=C\CCC1 (stereo unspecified)
inactive: dose: 100.0 mg/kg/injection, schedule: Q01DX009 (sc), vehicle: olive oil, sesame oil, peanut oil 99 % of control | dose: 100.0 mg/kg/injection, schedule: Q04DX003 (sc), vehicle: olive oil, sesame oil, peanut oil 109 % of control | dose: 200.0 mg/kg/injection, schedule: Q01DX009 (sc), vehicle: olive oil, sesame oil, peanut oil 89 % of control | dose: 200.0 mg/kg/injection, schedule: Q04DX003 (sc), vehicle: olive oil, sesame oil, peanut oil 106 % of control | dose: 400.0 mg/kg/injection, schedule: Q01DX009 (sc), vehicle: olive oil, sesame oil, peanut oil 88 % of control | dose: 400.0 mg/kg/injection, schedule: Q04DX003 (sc), vehicle: olive oil, sesame oil, peanut oil 97 % of control

NC(N)=N/N=C\CC(O)CO (stereo unspecified)
inactive: dose: 15.0 mg/kg/injection, schedule: Q01DX Z (ip), vehicle: methylcellulose (MC) 100 % of control | dose: 30.0 mg/kg/injection, schedule: Q01DX Z (ip), vehicle: methylcellulose (MC) 103 % of control | dose: 60.0 mg/kg/injection, schedule: Q01DX Z (ip), vehicle: methylcellulose (MC) 100 % of control | dose: 60.0 mg/kg/injection, schedule: Q01DX Z (oral), vehicle: methylcellulose (MC) 97 % of control | dose: 120.0 mg/kg/injection, schedule: Q01DX Z (ip), vehicle: methylcellulose (MC) 103 % of control | dose: 120.0 mg/kg/injection, schedule: Q01DX Z (oral), vehicle: methylcellulose (MC) 94 % of control | dose: 240.0 mg/kg/injection, schedule: Q01DX Z (oral), vehicle: methylcellulose (MC) 88 % of control | dose: 480.0 mg/kg/injection, schedule: Q01DX Z (oral), vehicle: methylcellulose (MC) 86 % of control

O=C(NC(=O)C(Cl)Cl)OC1c2cc(Cl)ccc2-c2c(Cl)cc(Cl)cc21 (stereo unspecified)
inactive: dose: 100.0 mg/kg/injection, schedule: Q01DX001 (ip), vehicle: Klucel (hydroxypropylcellulose) (HPC) 90 % of control | [4] 95 % of control | [6] 91 % of control | dose: 200.0 mg/kg/injection, schedule: Q01DX001 (ip), vehicle: Klucel (hydroxypropylcellulose) (HPC) 98 % of control | [5] 89 % of control | [7] 91 % of control | dose: 400.0 mg/kg/injection, schedule: Q01DX001 (ip), vehicle: Klucel (hydroxypropylcellulose) (HPC) 88 % of control | [8] 88 % of control

NC(CCl)=NC1CC1
inactive: dose: 25.0 mg/kg/injection, schedule: Q04DX002 (ip), vehicle: saline 106 % of control | dose: 50.0 mg/kg/injection, schedule: Q04DX002 (ip), vehicle: saline 106 % of control | dose: 100.0 mg/kg/injection, schedule: Q04DX002 (ip), vehicle: saline 110 % of control

CCCCCCCCCCCCCCCCCCNC(=O)Nc1ccccc1[N+](=O)[O-]
inactive: dose: 50.0 mg/kg/injection, schedule: Q01DX009 (ip), vehicle: DMSO 98 % of control | dose: 100.0 mg/kg/injection, schedule: Q01DX009 (ip), vehicle: DMSO 88 % of control | dose: 100.0 mg/kg/injection, schedule: Q04DX003 (ip), vehicle: DMSO 94 % of control | dose: 200.0 mg/kg/injection, schedule: Q04DX003 (ip), vehicle: DMSO 89 % of control

C=CCN(CC=C)C(=O)c1cc(Cl)ccc1Cl
inactive: dose: 100.0 mg/kg/injection, schedule: Q04DX002 (ip), vehicle: saline with Tween-80 97 % of control | dose: 200.0 mg/kg/injection, schedule: Q04DX002 (ip), vehicle: saline with Tween-80 103 % of control | dose: 400.0 mg/kg/injection, schedule: Q04DX002 (ip), vehicle: saline with Tween-80 110 % of control

COC(=O)/C(Br)=C\c1ccc(-c2ccccc2)cc1
inactive: [9] 93 % of control | [10] 93 % of control | [11] 93 % of control

CCCCCCCCCCCCCCCC(=O)N(CCC#N)CCCCN(CCC#N)C(=O)CCCCCCCCCCCCCCC
inactive: [9] 97 % of control and 106 % of control | [10] 93 % of control and 90 % of control | [11] 95 % of control and 102 % of control | dose: 300.0 mg/kg/injection, schedule: Q01DX009 (ip), vehicle: saline with Tween-80 92 % of control | dose: 400.0 mg/kg/injection, schedule: Q01DX009 (ip), vehicle: saline with Tween-80 98 % of control and 92 % of control | dose: 500.0 mg/kg/injection, schedule: Q01DX009 (ip), vehicle: saline with Tween-80 92 % of control

Cc1cc(C)c(O)c(C(C)(C)C)c1
inactive: dose: 50.0 mg/kg/injection, schedule: Q04DX003 (ip), vehicle: saline with Tween-80 102 % of control | dose: 100.0 mg/kg/injection, schedule: Q04DX003 (ip), vehicle: saline with Tween-80 101 % of control | dose: 200.0 mg/kg/injection, schedule: Q04DX003 (ip), vehicle: saline with Tween-80 107 % of control

O=Nc1ccc(O)cc1I
inactive: dose: 100.0 mg/kg/injection, schedule: Q04DX002 (ip), vehicle: Klucel (hydroxypropylcellulose) (HPC) 100 % of control | dose: 200.0 mg/kg/injection, schedule: Q04DX002 (ip), vehicle: Klucel (hydroxypropylcellulose) (HPC) 97 % of control | dose: 400.0 mg/kg/injection, schedule: Q04DX002 (ip), vehicle: Klucel (hydroxypropylcellulose) (HPC) 93 % of control

CCOC(=O)C1CCCCN1 (stereo unspecified)
inactive: dose: 75.0 mg/kg/injection, schedule: Q01DX001 (ip), vehicle: saline 91 % of control | dose: 150.0 mg/kg/injection, schedule: Q01DX001 (ip), vehicle: saline 91 % of control

Cc1c(Cl)cccc1NC(=O)COc1ccc(Cl)cc1
inactive: [4] 110 % of control | [6] 93 % of control | [5] 94 % of control | [7] 91 % of control | dose: 400.0 mg/kg/injection, schedule: Q01DX009 (ip), vehicle: Klucel (hydroxypropylcellulose) (HPC) 95 % of control | [8] 91 % of control

COC(=O)C1OC(n2cnc3c(=S)nc[nH]c32)C(OC(C)=O)C(OC(C)=O)C1OC(C)=O (stereo unspecified)
inactive: [12] 103 % of control | [1] 100 % of control | [2] 100 % of control | [3] 94 % of control

CCCCCN(CCCCC)C(=S)[S-].CCCCCN(CCCCC)C(=S)[S-].[Zn]
inactive: dose: 100.0 mg/kg/injection, schedule: Q04DX003 (ip), vehicle: carboxymethylcellulose (CMC) 94 % of control | dose: 200.0 mg/kg/injection, schedule: Q04DX003 (ip), vehicle: carboxymethylcellulose (CMC) 100 % of control | dose: 400.0 mg/kg/injection, schedule: Q04DX003 (ip), vehicle: carboxymethylcellulose (CMC) 91 % of control

CC1C(C)(C)P(=O)(n2nnc3ccccc32)C1(C)C (stereo unspecified)
inactive: dose: 100.0 mg/kg/injection, schedule: Q04DX003 (ip), vehicle: saline 105 % of control | dose: 200.0 mg/kg/injection, schedule: Q04DX003 (ip), vehicle: saline 97 % of control | dose: 400.0 mg/kg/injection, schedule: Q04DX003 (ip), vehicle: saline 94 % of control

COc1cc(N)c2ncccc2c1
inactive: dose: 15.0 mg/kg/injection, schedule: Q01DX001 (ip), vehicle: saline 98 % of control | dose: 30.0 mg/kg/injection, schedule: Q01DX001 (ip), vehicle: saline 97 % of control | dose: 75.0 mg/kg/injection, schedule: Q01DX001 (ip), vehicle: carboxymethylcellulose (CMC) 96 % of control

CC1C2CC3OC(=O)C1C3C2 (stereo unspecified)
inactive: [12] 104 % of control | [1] 102 % of control | [2] 87 % of control

OCC1OC(n2cc(Br)c3c(Cl)ncnc32)C(O)C1O (stereo unspecified)
inactive: [12] 117 % of control | [1] 87 % of control | [2] 93 % of control | [3] 112 % of control

O=C1NN=C2CCCCC12 (stereo unspecified)
inactive: dose: 100.0 mg/kg/injection, schedule: Q04DX003 (ip), vehicle: other 107 % of control | dose: 200.0 mg/kg/injection, schedule: Q04DX003 (ip), vehicle: other 97 % of control | dose: 400.0 mg/kg/injection, schedule: Q04DX003 (ip), vehicle: other 102 % of control

CN1c2ccc(Br)c[c]2[Sn]([CH3])([CH3])[c]2cc(Br)ccc21
inactive: dose: 100.0 mg/kg/injection, schedule: Q01DX001 (ip), vehicle: other 96 % of control | dose: 200.0 mg/kg/injection, schedule: Q01DX001 (ip), vehicle: other 97 % of control | dose: 400.0 mg/kg/injection, schedule: Q01DX001 (ip), vehicle: other 92 % of control
